Patent US5434171A, “Preparation of 3,4,4-trisubstituted-piperidinyl-N-alkylcarboxylates and intermediates” (priority 1993, dated 1995)
Counter-ions that a name gives are not always drawn.

How the values were obtained:
[1] = pKa determination; type: physicochemical; conditions: 67% aq. dmf
[2] = Method: Alternatively, a crystalline salt of compound 19F.B. (free base) can be prepared as illustrated in Scheme 2 supra. Crystallization studies were conducted using 17 different acids with three solvents; ethyl acetate, acetone, and ethanol.

Row | pKa [1] | stability of crystalline salt of 19F.B. [2] | Compound
1 | 7.68 |  | CC(C)COC(=O)CN [Isobutyl glycine, p-toluenesulfonic acid salt]
2 |  | crystalline salts stable at 25 °C | O=C(O)C[C@H](O)C(=O)O [L-malic]
3 |  | crystalline salts stable at 25 °C | Cl [hydrochloric]
